Source: patent US12103900B2, “Environment-friendly process for selective acylation of aminophenol” (LAXMI ORGANIC INDUSTRIES LTD, priority 2020, dated 2024)

Experiment: Analysis of solubility of paracetamol batches (Table 2)
Type: physicochemical
Conditions: limit: soluble in ethanol (95%) and in acetone, sparingly soluble in water, very slightly soluble in dichloro-methane and ether
Protocol: For the analysis of solubility, the paracetamol obtained using the present invention should be soluble in ethanol (95%) and soluble in acetone, sparingly soluble in water, very slightly soluble in dichloro-methane and ether. For identification purpose, the IR spectra should match the standard IR spectrum. The impurities were determined according to European and Indian pharmacopeia.

Solubility: Complies
Compound: CC(=O)Nc1ccc(O)cc1 [Ex. 9, N-acetyl-para-aminophenol]
